Columns and labels:
[1] = biological target: beta-amyloid 1-42 monomers (Homo sapiens, UniProt P05067); assay: Ex vivo fluorescent binding assay, monomers on naive rat brain sections; details: data not shown
Procedure: (§1) Fresh-frozen tissue sections of Sprauge-Dawley naïve rat brain (Taconic) 10 microns in thickness were fixed with 10% formalin in PBS. Each section of the rat brain was then embedded in paraffin, an optional step that increases the shelf life of the sample. Pre-formed soluble oligomers (100 μM), fibrils (100 μM), or monomers were applied onto tissues, and the slides incubated in a humidified chamber for two hours at 37° C. The slides were washed with PBS three times, then incubated with blocking buffer consisting of 10% normal goat serum in 3% BSA in PBS. To verify the presence of beta-amyloid, 100 μL of a 1/250th dilution of anti-beta-amyloid antibody, 6E10 (Signet Laboratories) was applied onto the tissues. The slides were incubated for 1.5 hours at room temperature or for 45 mins at 37° C. 1 mM stock solutions of 49b and Thioflavin T were prepared in 50% ethanol. The probes were diluted to 50 μM in blocking buffer. […] Microscopic examination and imaging was performed using a Leica wide-field fluorescence microscope using filter cube A (band pass 340-380 nm with a 400 nm dichroic mirror and a long pass 400 nm suppression filter) for 49b, cube E4 (band pass 436 nm with 455 dichroic mirror and a long pass 470 nm suppression filter) for Thioflavin T, and TX2 (band pass 520-600 nm with 595 nm dichroic mirror and 645/75 band pass suppression filter) for 6E10 immunostaining.

[2] = biological target: beta-amyloid 1-40 monomers (Homo sapiens, UniProt P05067); assay: as above; details: data not shown
Procedure: as §1

[3] = biological target: T1, beta-amyloid 1-42 oligomer (20% biotin) (Homo sapiens, UniProt P05067); assay: SPA competition binding assay against 3H-49b on soluble oligomers; details: 50 uM unlabeled competitor, 130 nM 3H-49b
T1 construct: 12 μg beta-amyloid 1-42 oligomer (20% biotin); purchased Bachem H-5642; host or cells: synthetic peptide
Procedure: Lyophilized Streptavidin-Ysi beads (GE Healthcare) were reconstituted to 100 mg/mL in deioniozed water, and then further diluted in deionized water to give a suspension containing 0.25 mg/10 μl water. Unlabeled 49b and other benzofuran probes were dissolved in DMSO to give a final stock concentration of 15 mM.
For the saturation-binding assay, isotopic dilution of radiolabeled 49b with unlabeled 49b was performed. ^3H-49b was added to 500 uM of unlabeled 49b to a final concentration of 50 μCi/mL ^3H-49b. The probe solution was then serially diluted in PBS to give six solutions giving 6.6, 13.1, 26.3, 52.5, 105, or 210 uM in the final assay well. Each concentration of the probe solution was incubated with 12 μg beta-amyloid 1-42 oligomer (20% biotin) or 1-40 (20% biotin) fibrils in a total volume of 90 μl. Assays were incubated at room temp for 2 hrs before addition of 10 μL YSi-streptavidin (0.25 mg) SPA bead. Assays were set-up in triplicate in 96-well NBS plates (Costar). Assays were incubated overnight and counted the following morning. […] The specific activities of the four probes were different, however the level of activity was the same at the concentrations where the probes were tested. For this assay, 130 nM of ^3H-49b, 90 nM ^3H-cimetidine, 14 nM ^3H-caffeine, and 6 nM ^3H-AZT were tested for direct binding to 12 ug of beta-amyloid-42 oligomer (20% biotin). Assay conditions were the same as described in saturation binding assay. […]
Data analyses were performed using Sigma Plot or GraphPad Prism® version 4. Curves were fitted using non-linear regression. KD values and IC50 values were estimated from the binding curves.
For the competition binding assay between tritium-labeled 49b and various unlabeled benzofuran analogs, assays contained 130 nM ^3H-49b and 50 uM of each of the unlabeled benzofuran analogs. As controls, 10 uM and 50 uM of unlabeled 49b were included in the assays.

Chain of beta-amyloid 1-42 monomers (P05067 672-713 limits assumed): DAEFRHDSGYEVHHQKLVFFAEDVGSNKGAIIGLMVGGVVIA
T1 sequence (P05067 672-713 limits assumed): as above
Chain of beta-amyloid 1-40 monomers (P05067 672-711 limits assumed): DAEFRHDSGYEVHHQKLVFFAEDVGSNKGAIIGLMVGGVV

staining of beta-amyloid 1-42 monomers [1]: did not stain
staining of beta-amyloid 1-40 monomers [2]: did not stain
inhibition at 50 µM [3]: 61%
SMILES: O=Cc1ccc(-c2oc3ccccc3c2CO)o1 [Compound 49b, 2-(2-formyl-5-furanyl)-3-hydroxymethyl benzofuran]
